Where “and” joins values, the source holds several entries; their conditions need not be identical. Equal entries are not always repeated.

Data set [1] has as its target 140 purified human kinases (Rattus norvegicus, UniProt Q62868). The data set is described as follows: Kinase inhibition screen, cell-free 33P ATP assay at 10 μM. The data set is classed as biochemical. The procedure, abridged: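 Radiometric ^33P ATP cell-free format with purified enzymes; both complexes run at 10 μM in duplicate, results plotted on a kinome map via HGNC symbols.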

Data set [2] concerns the target T1, recombinant human AMPK (α1β2γ1) (Homo sapiens, UniProt Q13131).
T1 construct: purchased Promega
The data set is described as follows: Substrate competition assay (ADP-Glo Kinase Assay). The format is biochemical. Here is the method:
ATP competition kinase assays were performed by the MRC Protein Phosphorylation and Ubiquitination Unit International Centre for Kinase Profiling (University of Dundee). Inhibition of recombinant human AMPK (α1β2γ1) by 10μM [L2Cu3]^6+ or [L2Zn3]^6+ was evaluated at five different ATP concentrations (0.5, 2, 20, 200 and 500 µM ATP). Substrate competition assays were performed using the ADP-Glo Kinase Assay (Promega) and recombinant human AMPK (α1β2γ1) (Promega) with concentrations of the provided AMPK substrate (SAMStide substrate, Promega) ranging from 1 to 15 mg/ml. Following pre-incubation of substrate with kinase for 5 min 10 µM [L2Cu3]^6+, [L2Zn3]^6+ or solvent control and 50 µM ATP was added to start the kinase reaction. For determination of the effects of AMP on AMPK inhibition by [L2Zn3]^6+, the ADP-Glo Kinase Assay (Promega) was performed in presence of varying of AMP (0, 80, 160 μM).

Data set [3] has as its target recombinant human AMPK (pT172 AMPKα1, pS108 AMPKβ1) (Homo sapiens, UniProt Q13131). The data set is described as follows: In vitro phosphatase assay with recombinant kinase, immunoblotting. The data set is classed as biochemical. To be noted: 50 μM complex, 4 h, with ATP. How it is done:
800 ng of purified recombinant human AMPK (α1β2γ1) or Src kinase (MRC PPU, International Centre for Kinase Profiling, University of Dundee) was incubated with 50 μM [L2Cu3]^6+, [L2Zn3]^6+, or vehicle control in 50 mM Tris HCl pH 7.5 containing 50 μM ATP for 4 h at 37 °C. For [L2Zn3]^6+ time course and concentration titration experiments, 800 ng recombinant human AMPK was used (α1β2γ1 AMPK isoform for pT172 AMPKα1 detection or α2β1γ1 AMPK isoform for pS108 AMPKβ1 detection). For evaluation of ATP dependency and influence of AMP, 50 µM ATP was replaced with 50 µM AMP or omitted. Reactions were stopped by addition of Laemmli’s buffer (Biorad) to 1x and heating at 95 °C for 5 min before analysis by SDS PAGE and immunoblotting for detection of specific phosphorylated amino acids of AMPK and Src proteins.
Protein lysates and recombinant proteins were resolved on 15% SDS polyacrylamide gels. Proteins were electroblotted onto nitrocellulose membrane by wet transfer in 1xTris Glycine buffer (Biorad) at 35 mA overnight at room temperature. After blocking of membranes, these were incubated with primary antibody overnight at 4 °C before addition of rabbit or mouse secondary antibody (HRP-conjugated; 1:5000, Dako P0448 or P0260) for 1 h at room temperature and development of blots by enhanced chemiluminescence. Primary antibodies were: anti-Src (total) (Cell Signalling Technology #2123 1:1000), anti-phosphorylated Src (Y527) (Cell Signalling Technology #21055 1:1000), anti-phosphorylated Src (Y416) (Cell Signalling Technology #69435 1:1000), anti-AMPKα (total) (Cell Signalling Technology #2532 1:1000), anti-phosphorylated AMPKα (T172) (Cell Signalling Technology #2535 1:1000), anti-AMPKβ1 (total) (Cell Signalling Technology #4150 1:1000), anti-phosphorylated AMPKβ1 (S108) (abcam ab156890 1:500), anti-phospho-Tyr (pan) (Cell Signalling Technology #8954 1:2000), anti-p53 (Santa Cruz, DO-1 clone, 1:1000,), anti-phosphorylated LDH-A (Y10) (Cell Signalling Technology #8176 1:1000), anti-LDH-A/B (total) (abcam ab134187 1:5000), anti-β-actin (Merck MAB1501, 1:40,000). Quantification of signals was performed by densitometry using Image J software. Uncropped and unprocessed scans are provided in the Source Data file.
For orientation: In western blotting, separated proteins are transferred to a membrane and probed.

The next data set relates to ARPE-19. The data set is described as follows: TSQ cellular localisation / uptake study. The format is cell-based, human. The following applies: ARPE-19, 25μM, 1 hour. Here is the method: (§1) 48 h following cell seeding in Lumox chamber slides (8-well, Sarstedt), cells (ARPE-19 and HCT116 p53^+/+ were treated for 1 h at 37 °C with 25 μM of [L2Zn3]^6+ or DMSO solvent control before removal and washout three times using complete phenol-red free media. 25 μM TSQ (Enzo Life Sciences) was then added for 30 min for detection of cellular zinc before its washout (three washes) and analyses by confocal microscopy (Zeiss LSM880).

The test system of a further data set is HCT116 p53+/+. The data set is described as follows: TSQ cellular localisation / uptake study. The format is cell-based, human. The following applies: 25μM, 1 hour. Here is the method: as §1

T1 sequence (Q13131 whole entry): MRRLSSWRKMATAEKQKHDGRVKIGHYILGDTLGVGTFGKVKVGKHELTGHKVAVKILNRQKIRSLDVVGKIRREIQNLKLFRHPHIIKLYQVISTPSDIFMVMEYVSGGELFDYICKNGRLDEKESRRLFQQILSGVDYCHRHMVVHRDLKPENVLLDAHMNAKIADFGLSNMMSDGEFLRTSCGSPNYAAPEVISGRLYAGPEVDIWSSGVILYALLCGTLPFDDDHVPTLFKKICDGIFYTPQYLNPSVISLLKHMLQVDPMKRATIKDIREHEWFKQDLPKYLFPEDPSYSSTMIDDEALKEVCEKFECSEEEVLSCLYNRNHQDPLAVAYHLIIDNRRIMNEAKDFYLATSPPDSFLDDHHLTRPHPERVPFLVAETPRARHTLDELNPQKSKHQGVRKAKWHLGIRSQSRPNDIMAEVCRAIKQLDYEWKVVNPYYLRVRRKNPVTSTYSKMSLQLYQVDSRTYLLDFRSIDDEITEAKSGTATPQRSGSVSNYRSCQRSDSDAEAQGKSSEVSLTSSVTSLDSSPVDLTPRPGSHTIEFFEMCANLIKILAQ
T1 sequence (O43741 whole entry partner): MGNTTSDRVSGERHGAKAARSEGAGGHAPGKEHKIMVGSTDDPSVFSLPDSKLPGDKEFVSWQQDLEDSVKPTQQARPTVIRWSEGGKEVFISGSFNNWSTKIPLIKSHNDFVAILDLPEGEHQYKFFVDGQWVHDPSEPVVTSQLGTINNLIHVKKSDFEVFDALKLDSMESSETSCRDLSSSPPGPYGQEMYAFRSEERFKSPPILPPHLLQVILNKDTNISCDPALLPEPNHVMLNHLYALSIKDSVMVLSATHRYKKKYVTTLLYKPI
T1 sequence (P54619 whole entry partner): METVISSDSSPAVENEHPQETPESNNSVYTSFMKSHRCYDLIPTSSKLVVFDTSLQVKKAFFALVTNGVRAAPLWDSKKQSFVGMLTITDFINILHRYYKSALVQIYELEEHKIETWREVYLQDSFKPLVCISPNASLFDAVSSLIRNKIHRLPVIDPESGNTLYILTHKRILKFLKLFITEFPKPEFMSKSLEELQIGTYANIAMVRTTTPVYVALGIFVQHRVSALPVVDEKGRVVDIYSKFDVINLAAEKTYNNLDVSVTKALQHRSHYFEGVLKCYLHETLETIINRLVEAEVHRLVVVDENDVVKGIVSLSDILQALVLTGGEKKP
Sequence of recombinant human AMPK (pT172 AMPKα1, pS108 AMPKβ1) (Q13131 whole entry, canonical isoform): as the sequence (Q13131 whole entry) above
Sequence of recombinant human AMPK (pT172 AMPKα1, pS108 AMPKβ1) (O43741 whole entry partner, canonical isoform): as the sequence (O43741 whole entry partner) above
Sequence of recombinant human AMPK (pT172 AMPKα1, pS108 AMPKβ1) (P54619 whole entry partner, canonical isoform): as the sequence (P54619 whole entry partner) above
Sequence of 140 purified human kinases (Q62868 whole entry): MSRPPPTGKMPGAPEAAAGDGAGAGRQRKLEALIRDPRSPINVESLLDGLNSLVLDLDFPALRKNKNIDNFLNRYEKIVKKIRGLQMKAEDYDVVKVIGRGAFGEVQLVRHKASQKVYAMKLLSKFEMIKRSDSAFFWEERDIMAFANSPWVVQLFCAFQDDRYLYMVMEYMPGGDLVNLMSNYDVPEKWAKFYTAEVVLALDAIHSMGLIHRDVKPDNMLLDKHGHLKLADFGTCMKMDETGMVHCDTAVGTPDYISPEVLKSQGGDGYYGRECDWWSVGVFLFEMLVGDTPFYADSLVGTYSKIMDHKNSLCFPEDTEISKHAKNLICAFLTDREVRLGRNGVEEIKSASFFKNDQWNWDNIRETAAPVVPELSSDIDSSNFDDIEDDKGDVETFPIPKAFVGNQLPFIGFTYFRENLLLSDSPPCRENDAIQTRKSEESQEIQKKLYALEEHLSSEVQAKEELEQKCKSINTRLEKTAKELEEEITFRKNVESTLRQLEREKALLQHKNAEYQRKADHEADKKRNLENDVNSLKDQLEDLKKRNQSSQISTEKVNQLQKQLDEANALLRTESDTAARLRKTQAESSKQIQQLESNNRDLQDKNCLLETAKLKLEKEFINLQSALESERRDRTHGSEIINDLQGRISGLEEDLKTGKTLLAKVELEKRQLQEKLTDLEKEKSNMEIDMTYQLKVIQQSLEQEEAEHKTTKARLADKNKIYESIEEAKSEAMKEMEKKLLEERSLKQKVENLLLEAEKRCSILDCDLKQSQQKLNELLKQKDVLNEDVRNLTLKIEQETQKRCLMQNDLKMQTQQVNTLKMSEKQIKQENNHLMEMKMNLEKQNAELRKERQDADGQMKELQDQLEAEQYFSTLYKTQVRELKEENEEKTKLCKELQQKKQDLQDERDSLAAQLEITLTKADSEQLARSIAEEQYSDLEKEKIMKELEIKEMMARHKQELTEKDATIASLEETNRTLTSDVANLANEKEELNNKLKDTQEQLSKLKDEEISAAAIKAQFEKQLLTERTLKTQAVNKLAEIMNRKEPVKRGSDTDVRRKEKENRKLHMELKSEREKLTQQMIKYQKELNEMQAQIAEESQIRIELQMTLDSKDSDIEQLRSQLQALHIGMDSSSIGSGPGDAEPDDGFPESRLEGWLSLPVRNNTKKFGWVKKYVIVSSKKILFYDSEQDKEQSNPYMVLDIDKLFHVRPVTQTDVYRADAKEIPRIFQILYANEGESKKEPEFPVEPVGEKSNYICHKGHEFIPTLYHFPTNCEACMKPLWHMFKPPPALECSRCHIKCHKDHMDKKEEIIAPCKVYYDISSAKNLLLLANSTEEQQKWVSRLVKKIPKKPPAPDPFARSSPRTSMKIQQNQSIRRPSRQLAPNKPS

As for `[Cu+2].[Cu+2].[Cu+2].c1ccc(-c2csc(NCCN(CCNc3nc(-c4ccccn4)cs3)CCNc3nc(-c4ccccn4)cs3)n2)nc1.c1ccc(-c2csc(NCCN(CCNc3nc(-c4ccccn4)cs3)CCNc3nc(-c4ccccn4)cs3)n2)nc1` [[L2Cu3]6+], the “% activity” value in data set [1] (ROCK 2, Run 1) worked out at 16.5%; in data set [1] (ROCK 2, Run 2) it was 22.5%. In addition, the “%AMPK Activity Remaining, Mean” value in data set [2] (Substrate 1 mg/ml) was 34.60%; in data set [2] (Substrate 2.5 mg/ml), 20.90%; in data set [2] (Substrate 5 mg/ml), 17.00%; in data set [2] (Substrate 10 mg/ml) it was 25.40%; in data set [2] (Substrate 15 mg/ml), 17.20%. The “%AMPK Activity Remaining, individual replicates” value in data set [2] (Substrate 1 mg/ml) was 16.20% and 28.30% and 59.40%; in data set [2] (Substrate 2.5 mg/ml), 15.60% and 15.00% and 32.00%; in data set [2] (Substrate 5 mg/ml), 18.00% and 15.40% and 17.70%; in data set [2] (Substrate 10 mg/ml) it was 26.20% and 21.60% and 28.40%; in data set [2] (Substrate 15 mg/ml), 13.60% and 12.90% and 25.20%. Besides, the “T172P levels of AMPKα detectable by immunoblotting” value in data set [3] was “significantly reduced”.

With `CC(=O)[O-].CC(=O)[O-].CC(=O)[O-].CC(=O)[O-].CC(=O)[O-].CC(=O)[O-].[Zn+2].[Zn+2].[Zn+2].c1ccc(-c2csc(NCCN(CCNc3nc(-c4ccccn4)cs3)CCNc3nc(-c4ccccn4)cs3)n2)nc1.c1ccc(-c2csc(NCCN(CCNc3nc(-c4ccccn4)cs3)CCNc3nc(-c4ccccn4)cs3)n2)nc1` [[L2Zn3]6+], the “%AMPK Activity Remaining, Mean” value in data set [2] (Substrate 1 mg/ml) was determined as 42.90%; in data set [2] (Substrate 2.5 mg/ml) it was 28.10%; in data set [2] (Substrate 5 mg/ml), 39.40%; in data set [2] (Substrate 10 mg/ml), 43.70%; in data set [2] (Substrate 15 mg/ml) it was 35.80%. The “%AMPK Activity Remaining, individual replicates” value in data set [2] (Substrate 1 mg/ml) was 57.40% and 31.37% and 37.80% and 44.50%; in data set [2] (Substrate 2.5 mg/ml), 30.60% and 40.90% and 18.40% and 22.50%; in data set [2] (Substrate 5 mg/ml), 31.50% (2×) and 56.70% (2×) and 25.70% (2×) and 43.60% (2×); in data set [2] (Substrate 10 mg/ml) it was 40.20% and 42.80% and 35.20% and 56.50%; in data set [2] (Substrate 15 mg/ml), 33.30% and 26.60% and 47.50%. The “cellular uptake (TSQ fluorescent signal)” value in the data set on ARPE-19 and in the data set on HCT116 p53+/+ was “increase in TSQ fluorescent signal” throughout. In addition, in data set [3], the “T172P levels of AMPKα detectable by immunoblotting” value is reported as “significantly reduced”.
